Data from ChEMBL document CHEMBL1130479, “7-O-acylpaclitaxel analogues: potential probes to map the paclitaxel binding site” (1997).

Columns and labels:
[1] = test system: B16; assay: The cytotoxic activity was measured against B16 melanoma cells, activity expressed as ED50 of compound/ ED50 of paclitaxel; format: functional, Mus musculus
[2] = The activity to inhibit microtubule assembly, activity expressed as ED50 of compound/ ED50 of paclitaxel; format: functional

CC(=O)O[C@H]1C(=O)[C@]2(C)[C@@H](OC(=O)c3ccc(N)cc3)C[C@H]3OC[C@@]3(OC(C)=O)[C@H]2[C@H](OC(=O)c2ccccc2)[C@]2(O)C[C@H](OC(=O)[C@H](O)[C@@H](NC(=O)c3ccccc3)c3ccccc3)C(C)=C1C2(C)C
Cytotoxicity [1]: 17 | Activity [2]: 1.7

CC(=O)O[C@H]1C(=O)[C@]2(C)[C@@H](OC(=O)CCl)C[C@H]3OC[C@@]3(OC(C)=O)[C@H]2[C@H](OC(=O)c2ccccc2)[C@]2(O)C[C@H](OC(=O)[C@H](O)[C@@H](NC(=O)c3ccccc3)c3ccccc3)C(C)=C1C2(C)C
Cytotoxicity [1]: 0.92 | Activity [2]: 1.6

CC(=O)O[C@H]1C(=O)[C@]2(C)[C@@H](OC(=O)c3cccc(N)c3)C[C@H]3OC[C@@]3(OC(C)=O)[C@H]2[C@H](OC(=O)c2ccccc2)[C@]2(O)C[C@H](OC(=O)[C@H](O)[C@@H](NC(=O)c3ccccc3)c3ccccc3)C(C)=C1C2(C)C
Cytotoxicity [1]: 7.1 | Activity [2]: 1.5

CC(=O)O[C@H]1C(=O)[C@]2(C)[C@@H](OC(=O)c3ccc(N=[N+]=[N-])cc3)C[C@H]3OC[C@@]3(OC(C)=O)[C@H]2[C@H](OC(=O)c2ccccc2)[C@]2(O)C[C@H](OC(=O)[C@H](O)[C@@H](NC(=O)c3ccccc3)c3ccccc3)C(C)=C1C2(C)C
Cytotoxicity [1]: 30 | Activity [2]: 21

CC(=O)O[C@H]1C(=O)[C@]2(C)[C@@H](OC(=O)c3cc(N)cc([N+](=O)[O-])c3)C[C@H]3OC[C@@]3(OC(C)=O)[C@H]2[C@H](OC(=O)c2ccccc2)[C@]2(O)C[C@H](OC(=O)[C@H](O)[C@@H](NC(=O)c3ccccc3)c3ccccc3)C(C)=C1C2(C)C
Cytotoxicity [1]: 16 | Activity [2]: 4.4

CC(=O)O[C@H]1C(=O)[C@]2(C)[C@@H](OC(=O)CI)C[C@H]3OC[C@@]3(OC(C)=O)[C@H]2[C@H](OC(=O)c2ccccc2)[C@]2(O)C[C@H](OC(=O)[C@H](O)[C@@H](NC(=O)c3ccccc3)c3ccccc3)C(C)=C1C2(C)C
Cytotoxicity [1]: 3.7 | Activity [2]: 3.3

CC(=O)O[C@H]1C(=O)[C@]2(C)[C@@H](OC(=O)c3cccc(N=[N+]=[N-])c3)C[C@H]3OC[C@@]3(OC(C)=O)[C@H]2[C@H](OC(=O)c2ccccc2)[C@]2(O)C[C@H](OC(=O)[C@H](O)[C@@H](NC(=O)c3ccccc3)c3ccccc3)C(C)=C1C2(C)C
Activity [2]: > 24

CC(=O)O[C@H]1C(=O)[C@]2(C)[C@@H](OC(=O)c3ccccc3)C[C@H]3OC[C@@]3(OC(C)=O)[C@H]2[C@H](OC(=O)c2ccccc2)[C@]2(O)C[C@H](OC(=O)[C@H](O)[C@@H](NC(=O)c3ccccc3)c3ccccc3)C(C)=C1C2(C)C [PACLITAXEL C7 BENZOIC ACID ESTER]
Cytotoxicity [1]: 9.7 | Activity [2]: 4.1

CC(=O)O[C@H]1C(=O)[C@]2(C)[C@@H](OC(=O)c3cc(N=[N+]=[N-])cc([N+](=O)[O-])c3)C[C@H]3OC[C@@]3(OC(C)=O)[C@H]2[C@H](OC(=O)c2ccccc2)[C@]2(O)C[C@H](OC(=O)[C@H](O)[C@@H](NC(=O)c3ccccc3)c3ccccc3)C(C)=C1C2(C)C
Activity [2]: > 24

CC(=O)O[C@H]1C(=O)[C@]2(C)[C@@H](OC(=O)c3cccc(N(C)C)c3)C[C@H]3OC[C@@]3(OC(C)=O)[C@H]2[C@H](OC(=O)c2ccccc2)[C@]2(O)C[C@H](OC(=O)[C@H](O)[C@@H](NC(=O)c3ccccc3)c3ccccc3)C(C)=C1C2(C)C
Activity [2]: 22

CC(=O)O[C@H]1C(=O)[C@@]2(C)[C@H]([C@H](OC(=O)c3ccccc3)[C@]3(O)C[C@H](OC(=O)[C@H](O)[C@@H](NC(=O)c4ccccc4)c4ccccc4)C(C)=C1C3(C)C)[C@]1(OC(C)=O)CO[C@@H]1C[C@@H]2O [PACLITAXEL]
Cytotoxicity [1]: 1 | Activity [2]: 1

CC(=O)O[C@H]1C(=O)[C@@]2(C)C([C@H](OC(=O)c3ccccc3)[C@]3(O)C[C@H](OC(=O)[C@H](O)[C@@H](NC(=O)c4ccccc4)c4ccccc4)C(C)=C1C3(C)C)[C@]1(OC(C)=O)CO[C@@H]1C[C@@H]2OC(=O)c1cccc(C(C)C)c1 (stereo not given in full)
Activity [2]: > 32
